In patent publication US20070037848A1, “Treatment of neurological conditions” (priority 2003, published 2007):
“Also recorded” adds a separate entry of the source.

Experiments:
[1] = Safety measures / adverse event reporting in the Phase II trial; format: in vivo, human
Experimental: (§1) Standard adverse event reporting to a safety monitoring committee, consisting of physicians independent of the study, was conducted to review adverse events at three monthly intervals and on an emergent basis. Following baseline, safety visits were conducted at weeks 2, 4, 8, 12, 16, 20, 24, 26, 28, 32 and 36. The patient and carer were questioned about any changes which might have occurred in the patient's health or medications since the last visit. Standard biochemical, renal and liver function, full blood examination, serum vitamin B12 and folate levels, blood pressure and weight were documented at each visit. A neurological examination was conducted at each visit to assess for peripheral neuropathy and optic neuropathy, and visual evoked responses, nerve conduction studies and a full ophthalmic examination (visual acuity, colour vision, fundal examination and visual field) were conducted at screening, at week 18 and at two weeks after trial completion. An ECG was performed at baseline and at weeks 12 and 24.

[2] = test system: plasma Aβ42; test: Phase II clinical trial: plasma Aβ42; format: in vivo, human
Experimental: (§2) Screening procedures consisted of a full medical history, full physical, neurological and ophthalmic examination, blood and urine tests and psychometric tests (ADAS-Cog, MMSE) to confirm the patient's eligibility for the study. Nerve conduction tests and visual evoked responses were conducted between the screening and baseline visits to provide a baseline measurement and to exclude patients with undiagnosed peripheral neuropathies or visual disturbances. Blood was collected for ApoE allotyping and determination of baseline plasma levels of CQ, metals and Aβ prior to randomization.
(§3) The primary efficacy variable was a change in the baseline score on the AD Assessment Scale (ADAS), which was conducted at baseline and at weeks 4, 12, 24 and 36. This readout was chosen for comparability of treatment effects with current therapeutic agents, such as donepezil, for which efficacy trials also used ADAS as their primary outcome measure (Rogers et al., Neurology 50: 136-145, 1998). Although numerous neuropsychological tests could be considered as secondary measures, it was necessary to avoid fatiguing the subjects at review. Therefore the only other cognitive test performed was the Mini-Mental State Exam (MMSE), which is well characterized and easily implemented. […]

[3] = Nerve conduction studies (peripheral nerve latency) in the Phase II trial; format: in vivo, human
Experimental: as §2, §1

[4] = test system: plasma Aβ40; test: Phase II clinical trial: plasma Aβ40; format: in vivo, human
Experimental: as §2, §3

[5] = test system: plasma Zn; test: Phase II clinical trial: plasma zinc; format: in vivo, human
Experimental: as §2, §3

[6] = test system: plasma Cu; test: Phase II clinical trial: plasma copper; format: in vivo, human; settings: administration of CQ vs placebo
Experimental: as §2, §3

[7] = test system: Aβ accumulation; settings: cited from earlier work
[8] = test system: patients with probable AD; test: Phase II clinical trial of clioquinol: cognitive function (ADAS-Cog); format: in vivo, human; settings: for increase in ADAS-Cog scores: CQ group
Experimental: On the basis of the pre-clinical data, a Phase II clinical trial was prepared of CQ for the treatment of AD. Inclusion criteria for this Phase II study targeted a region on the ADAS-cog scale (20-45) where patients are moderately demented, still living at home, but anticipating an accelerated deterioration as part of the natural history of AD, over the next 12 months. Because the primary outcome was efficacy, a triple-blind design was chosen.
Criteria for inclusion in the study were:— • (a) informed consent; • (b) a diagnosis of probable AD by NINCDS-ADRDA criteria (McKhann et al., Neurology 34: 939-944, 1984); • (c) AD Assessment Scale-Cognitive (ADAS-Cog) score of 20-45 inclusive (Rosen et al., Am. J. Psychiatry 141: 1356-1364, 1984); • (d) Mini Mental State Examination (MMSE) score of 10-24 inclusive (Folstein et al., J. Psychiatr. Res. 12: 189-198, 1975); • (e) on donepezil hydrochloride 5 mg or 10 mg for at least six months; • (f) relative or carer willing and able to support the trial; • (g) able to complete trial examinations; and • (h) primary sensorial functions intact.
The study was a triple blind, placebo-controlled, randomized design. Thirty-six patients and their carers were recruited to participate, with patients being randomized to receive either CQ or placebo; there were 18 patients in each arm. The duration of the study was 36 weeks. CQ dosage was 125 mg twice daily from weeks 0-12, increased to 250 mg twice daily from weeks 13-24, and finally, 375 mg twice daily from weeks 25-36.
as §3, with “implemented. The Clinician's Interview Based Impression of Change (CIBIC), a subjective observational index also used in efficacy trials of acetylcholinesterase inhibitors, was conducted at baseline and at weeks 12, 24 and 36 by an independent researcher who was not part of the study team. Blood samples for measurement of plasma Aβ and plasma zinc and copper were all taken four weekly, by antecubital fossa venepuncture.” for “implemented.”

Oc1c(I)cc(Cl)c2cccnc12 [CQ, iodochlorhydroxyquin]
overall safety and tolerability ([1]; 36 weeks, 250-750 mg/day): safe and well tolerated
non-attributable serious adverse event (hospitalization) ([1]; CQ arm): syncope due to impaired cardiac function
albumin ([1]; CQ arm, group LFT changes): fell significantly
γ-GT, AST, ALT and bilirubin ([1]; CQ arm, group LFT changes): small significant elevation
reduction in haemoglobin ([1]; CQ arm, week 24, p=0.003): 6.88 g/L
reduction in haemoglobin ([1]; CQ arm, week 36, p=0.03): 5.5 g/L
adverse haematological events ([1]; CQ-treated subjects): no adverse haematological events
risk of impairment in visual acuity, colour vision, visual fields or fundoscopic abnormalities ([1]; between the two arms, McNemar's test): no significant differences
overt symptoms or signs of impaired liver function ([1]; changes at week 24 returning to normal by week 36): No subject developed any overt symptoms or signs of impaired liver function
likelihood of changes in liver function tests (LFT) ([1]; patients on CQ vs placebo): more likely
likelihood to develop diarrhoea ([1]; patients on CQ vs placebo): less likely
Abdominal pain, subjects ([1]; treatment arm n = 18): 2
Constipation, subjects ([1]; treatment arm n = 18): 2
Decreased vitamin B12, subjects ([1]; treatment arm n = 18): 0
Diarrhoea, subjects ([1]; treatment arm n = 18): 1
Impaired nerve conduction, subjects ([1]; treatment arm n = 18): 3
Impaired reflexes, subjects ([1]; treatment arm n = 18): 1
Lymphopoenia, subjects ([1]; treatment arm n = 18): 0
Microalbuminurea, subjects ([1]; treatment arm n = 18): 5
Nausea, subjects ([1]; treatment arm n = 18): 2
Numb legs, subjects ([1]; treatment arm n = 18): 2
Postural Dizziness, subjects ([1]; treatment arm n = 18): 7
Postural Hypotension, subjects ([1]; treatment arm n = 18): 12
Postural Tachyardia, subjects ([1]; treatment arm n = 18): 12
Raised bilirubin, subjects ([1]; treatment arm n = 18): 2
Raised γGT, subjects ([1]; treatment arm n = 18): 2
Subjects with +1 postural symptom ([1]; treatment arm n = 18): 13
Subjects with =1 GI symptom ([1]; treatment arm n = 18): 5
Subjects with =1 abnormal LFT ([1]; treatment arm n = 18): 4
Subjects with =1 neurological symptom ([1]; treatment arm n = 18): 6
Mean number discrete Adverse Events Per subject ([1]; treatment arm, 61/18): 3.38
number of attributable events reported ([1]; treatment group, n = 18): 61
Abdominal pain, Relative Risk ([1]; treatment vs placebo): 2.0
Diarrhoea, Relative Risk ([1]; treatment vs placebo): 0.25
Impaired nerve conduction, Relative Risk ([1]; treatment vs placebo): 3.0
Impaired reflexes, Relative Risk ([1]; treatment vs placebo): 0.5
Microalbuminurea, Relative Risk ([1]; treatment vs placebo): 1.00
Postural Dizziness, Relative Risk ([1]; treatment vs placebo): 2.33
Postural Hypotension, Relative Risk ([1]; treatment vs placebo): 1.09
Raised γGT, Relative Risk ([1]; treatment vs placebo): 2.0
Subjects with +1 postural symptom, Relative Risk ([1]; treatment vs placebo): 0.93
Subjects with =1 GI symptom, Relative Risk ([1]; treatment vs placebo): 1.25
Subjects with =1 abnormal LFT, Relative Risk ([1]; treatment vs placebo): 4.0
Subjects with =1 neurological symptom, Relative Risk ([1]; treatment vs placebo): 1.5
Mean number discrete Adverse Events Per subject, Mean diff ([1]; treatment vs placebo, p = 0.327): 0.611
change in plasma Aβ42 ([2]; CQ-treated group, lowering from week 20 onwards, placebo increased): declined; also recorded: very significant lowering
plasma Aβ42 changes by severity ([2]; less-severely affected individuals compared with more-severely affected): more evident
calf latency (baseline)-calf latency (week 20), Mean within-group change ([3]; Pair 1, paired difference, unit assumed): 0.575 ms
calf latency (baseline)-calf latency (week 36), Mean within-group change ([3]; Pair 2, paired difference, in ms (unit assumed)): .7937
wrist 1 latency week 1-wrist 1 latency week 20, Mean within-group change ([3]; Pair 3, paired difference, in ms (unit assumed)): .5824
wrist 1 latency week 1-wrist 1 latency week 36, Mean within-group change ([3]; Pair 4, paired difference, in ms (unit assumed)): .7875
wrist 2 latency week 1-wrist 2 latency week 20, Mean within-group change ([3]; Pair 5, paired difference, in ms (unit assumed)): 1.000E−01
wrist 2 latency week 1-wrist 2 latency week 36, Mean within-group change ([3]; Pair 6, paired difference, in ms (unit assumed)): .2429
between group differences in nerve conduction parameters ([3]; detailed analyses, to week 36): no significant between group differences
risk of displaying abnormal nerve conduction ([3]; subjects on CQ vs placebo): increased risk
plasma Aβ40 levels ([4]; compared with Aβ42 trends, CQ vs placebo): overall similar trends
plasma Aβ40, placebo vs CQ groups ([4]; weeks 8, 32 and 36, less-severely affected groups): significant differences
rise of plasma Zn levels ([5]; CQ, Phase II trial): 30%
total plasma Zn ([5]; administration of CQ vs placebo): significant elevation
plasma Cu [6]: no effect
effect on Aβ deposits in transgenic mice ([7]; 30 mg/kg body weight by gavage (Cherny et al., 2001)): effective
inhibiting Aβ accumulation in transgenic mice ([7]; 20-30 mg/kg orally daily, five days per week, two to three months): markedly effective
increase in ADAS-Cog scores ([8]; less-severely affected patients): only small increases
increase in ADAS-Cog scores ([8]; more severely-affected patients): negligible increase
effect of treatment on ADAS-Cog ([8]; more-severely affected group (baseline ADAS-Cog≧25), CQ vs placebo): statistically significant; also recorded: significant effect on preventing cognitive decline
primary clinical outcome of efficacy, ADAS-Cog change from baseline ([8]; whole cohort, CQ vs placebo, 36 weeks, on donepezil): trend
